Results reported in the NIST ThermoML archive (doi:10.1021/je800334m).
Numbers after ± are expanded uncertainties.

Assay: excess molar enthalpy (molar enthalpy of mixing); xn = mol fraction of the nth substance listed
Conditions: Liquid, Flow calorimetry

CN(C)CCO [2-(N,N-dimethylamino)ethanol] + CO
Conditions | excess molar enthalpy [kcal/mol]
298.2 K, 100 kPa, x1 = 0.0499 | -0.0602 ± 0.00167
298.2 K, 100 kPa, x1 = 0.099 | -0.108 ± 0.00263
298.2 K, 100 kPa, x1 = 0.1495 | -0.144 ± 0.00311
298.2 K, 100 kPa, x1 = 0.1981 | -0.172 ± 0.00382
298.2 K, 100 kPa, x1 = 0.2479 | -0.193 ± 0.00406
298.2 K, 100 kPa, x1 = 0.2982 | -0.207 ± 0.00454
298.2 K, 100 kPa, x1 = 0.3481 | -0.214 ± 0.00454
298.2 K, 100 kPa, x1 = 0.3968 | -0.217 ± 0.00454
298.2 K, 100 kPa, x1 = 0.4466 | -0.214 ± 0.00454
298.2 K, 100 kPa, x1 = 0.4972 | -0.207 ± 0.00454
298.2 K, 100 kPa, x1 = 0.5483 | -0.197 ± 0.0043
298.2 K, 100 kPa, x1 = 0.5992 | -0.183 ± 0.00406
298.2 K, 100 kPa, x1 = 0.6494 | -0.167 ± 0.00359
298.2 K, 100 kPa, x1 = 0.6981 | -0.149 ± 0.00335
298.2 K, 100 kPa, x1 = 0.7506 | -0.127 ± 0.00287
298.2 K, 100 kPa, x1 = 0.8007 | -0.105 ± 0.00234
298.2 K, 100 kPa, x1 = 0.8477 | -0.0821 ± 0.00186
298.2 K, 100 kPa, x1 = 0.8977 | -0.0564 ± 0.00136
298.2 K, 100 kPa, x1 = 0.9512 | -0.027 ± 0.000669
298.2 K, 10000 kPa, x1 = 0.05 | -0.0659 ± 0.00174
298.2 K, 10000 kPa, x1 = 0.0993 | -0.112 ± 0.00263
298.2 K, 10000 kPa, x1 = 0.1479 | -0.146 ± 0.00311
298.2 K, 10000 kPa, x1 = 0.1986 | -0.175 ± 0.00382
298.2 K, 10000 kPa, x1 = 0.2485 | -0.194 ± 0.0043
298.2 K, 10000 kPa, x1 = 0.2961 | -0.207 ± 0.00454
298.2 K, 10000 kPa, x1 = 0.3458 | -0.214 ± 0.00454
298.2 K, 10000 kPa, x1 = 0.3976 | -0.216 ± 0.00454
298.2 K, 10000 kPa, x1 = 0.4474 | -0.214 ± 0.00454
298.2 K, 10000 kPa, x1 = 0.4981 | -0.207 ± 0.00454
298.2 K, 10000 kPa, x1 = 0.5447 | -0.198 ± 0.0043
298.2 K, 10000 kPa, x1 = 0.5952 | -0.184 ± 0.00406
298.2 K, 10000 kPa, x1 = 0.645 | -0.168 ± 0.00359
298.2 K, 10000 kPa, x1 = 0.6988 | -0.148 ± 0.00311
298.2 K, 10000 kPa, x1 = 0.7452 | -0.129 ± 0.00287
298.2 K, 10000 kPa, x1 = 0.7948 | -0.108 ± 0.00239
298.2 K, 10000 kPa, x1 = 0.8481 | -0.0818 ± 0.00186
298.2 K, 10000 kPa, x1 = 0.898 | -0.0562 ± 0.00136
313.2 K, 100 kPa, x1 = 0.0499 | -0.062 ± 0.00167
313.2 K, 100 kPa, x1 = 0.099 | -0.109 ± 0.00263
313.2 K, 100 kPa, x1 = 0.1495 | -0.148 ± 0.00335
313.2 K, 100 kPa, x1 = 0.1981 | -0.177 ± 0.00382
313.2 K, 100 kPa, x1 = 0.2479 | -0.197 ± 0.0043
313.2 K, 100 kPa, x1 = 0.2982 | -0.21 ± 0.00454
313.2 K, 100 kPa, x1 = 0.3481 | -0.217 ± 0.00454
313.2 K, 100 kPa, x1 = 0.3968 | -0.219 ± 0.00478
313.2 K, 100 kPa, x1 = 0.4466 | -0.217 ± 0.00454
313.2 K, 100 kPa, x1 = 0.4972 | -0.211 ± 0.00454
313.2 K, 100 kPa, x1 = 0.5483 | -0.199 ± 0.0043
313.2 K, 100 kPa, x1 = 0.5992 | -0.187 ± 0.00406
313.2 K, 100 kPa, x1 = 0.6494 | -0.17 ± 0.00359
313.2 K, 100 kPa, x1 = 0.6981 | -0.151 ± 0.00335
313.2 K, 100 kPa, x1 = 0.7506 | -0.13 ± 0.00287
313.2 K, 100 kPa, x1 = 0.8007 | -0.106 ± 0.00237
313.2 K, 100 kPa, x1 = 0.8477 | -0.0831 ± 0.00189
313.2 K, 100 kPa, x1 = 0.8977 | -0.0566 ± 0.00136
313.2 K, 100 kPa, x1 = 0.9512 | -0.028 ± 0.000693
313.2 K, 10000 kPa, x1 = 0.0502 | -0.0624 ± 0.0017
313.2 K, 10000 kPa, x1 = 0.0996 | -0.111 ± 0.00263
313.2 K, 10000 kPa, x1 = 0.1484 | -0.148 ± 0.00335
313.2 K, 10000 kPa, x1 = 0.1992 | -0.177 ± 0.00382
313.2 K, 10000 kPa, x1 = 0.2491 | -0.198 ± 0.0043
313.2 K, 10000 kPa, x1 = 0.2968 | -0.211 ± 0.00454
313.2 K, 10000 kPa, x1 = 0.3465 | -0.219 ± 0.00478
313.2 K, 10000 kPa, x1 = 0.3983 | -0.222 ± 0.00478
313.2 K, 10000 kPa, x1 = 0.4482 | -0.219 ± 0.00478
313.2 K, 10000 kPa, x1 = 0.4989 | -0.213 ± 0.00454
313.2 K, 10000 kPa, x1 = 0.5455 | -0.203 ± 0.0043
313.2 K, 10000 kPa, x1 = 0.596 | -0.19 ± 0.00406
313.2 K, 10000 kPa, x1 = 0.6457 | -0.174 ± 0.00382
313.2 K, 10000 kPa, x1 = 0.6995 | -0.153 ± 0.00335
313.2 K, 10000 kPa, x1 = 0.7458 | -0.133 ± 0.00287
313.2 K, 10000 kPa, x1 = 0.7953 | -0.111 ± 0.00239
313.2 K, 10000 kPa, x1 = 0.8485 | -0.0847 ± 0.00194
313.2 K, 10000 kPa, x1 = 0.8983 | -0.0578 ± 0.00141
328.2 K, 100 kPa, x1 = 0.1479 | -0.141 ± 0.00311
328.2 K, 100 kPa, x1 = 0.1972 | -0.171 ± 0.00382
328.2 K, 100 kPa, x1 = 0.2469 | -0.192 ± 0.00406
328.2 K, 100 kPa, x1 = 0.2976 | -0.206 ± 0.0043
328.2 K, 100 kPa, x1 = 0.3469 | -0.214 ± 0.00454
328.2 K, 100 kPa, x1 = 0.3974 | -0.216 ± 0.00454
328.2 K, 100 kPa, x1 = 0.4466 | -0.214 ± 0.00454
328.2 K, 100 kPa, x1 = 0.4956 | -0.207 ± 0.00454
328.2 K, 100 kPa, x1 = 0.5465 | -0.197 ± 0.0043
328.2 K, 100 kPa, x1 = 0.5963 | -0.183 ± 0.00406
328.2 K, 100 kPa, x1 = 0.6473 | -0.167 ± 0.00359
328.2 K, 10000 kPa, x1 = 0.1487 | -0.142 ± 0.00311
328.2 K, 10000 kPa, x1 = 0.1983 | -0.171 ± 0.00382
328.2 K, 10000 kPa, x1 = 0.2481 | -0.194 ± 0.0043
328.2 K, 10000 kPa, x1 = 0.2973 | -0.207 ± 0.00454
328.2 K, 10000 kPa, x1 = 0.3465 | -0.216 ± 0.00454
328.2 K, 10000 kPa, x1 = 0.397 | -0.218 ± 0.00478
328.2 K, 10000 kPa, x1 = 0.446 | -0.217 ± 0.00454
328.2 K, 10000 kPa, x1 = 0.4972 | -0.21 ± 0.00454
328.2 K, 10000 kPa, x1 = 0.5455 | -0.201 ± 0.0043
328.2 K, 10000 kPa, x1 = 0.5979 | -0.187 ± 0.00406
328.2 K, 10000 kPa, x1 = 0.6457 | -0.172 ± 0.00382
328.2 K, 10000 kPa, x1 = 0.6973 | -0.153 ± 0.00335
